{
  "source": "paper PMC12910498",
  "about": "(ACS pharmacology & translational science, 2026)",
  "key": {"D5": {"biological_target": "T1, D5 (Homo sapiens, UniProt P21918)", "T1 construct": "Psychoactive Drug Screening Program (PDSP)", "T1 sequence (P21918 whole entry)": "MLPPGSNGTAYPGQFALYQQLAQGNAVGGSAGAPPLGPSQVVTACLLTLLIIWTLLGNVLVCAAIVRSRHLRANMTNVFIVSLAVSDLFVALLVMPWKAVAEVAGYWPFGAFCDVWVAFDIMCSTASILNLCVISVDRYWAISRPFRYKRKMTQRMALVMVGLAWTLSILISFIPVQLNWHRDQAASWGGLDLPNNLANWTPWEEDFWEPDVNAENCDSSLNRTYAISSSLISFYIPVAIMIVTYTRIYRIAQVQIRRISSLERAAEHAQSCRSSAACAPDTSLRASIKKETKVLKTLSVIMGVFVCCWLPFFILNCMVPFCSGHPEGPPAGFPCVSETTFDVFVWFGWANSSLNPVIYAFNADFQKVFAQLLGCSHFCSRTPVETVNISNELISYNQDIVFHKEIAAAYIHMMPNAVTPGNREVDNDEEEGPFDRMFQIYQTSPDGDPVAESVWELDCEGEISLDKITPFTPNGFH", "assay": "PDSP primary screen, D5", "assay_type": "binding", "conditions": "10 µM compound", "source_text": "(§1) Receptor Primary Secondary Primary Secondary Primary Secondary Primary Secondary screen assay screen assay screen assay screen assay […]\n(§2) inhibition in primary assessment."}, "human D4R": {"biological_target": "T2, human D4R (Homo sapiens, UniProt P21917)", "T2 sequence (P21917 1-419)": "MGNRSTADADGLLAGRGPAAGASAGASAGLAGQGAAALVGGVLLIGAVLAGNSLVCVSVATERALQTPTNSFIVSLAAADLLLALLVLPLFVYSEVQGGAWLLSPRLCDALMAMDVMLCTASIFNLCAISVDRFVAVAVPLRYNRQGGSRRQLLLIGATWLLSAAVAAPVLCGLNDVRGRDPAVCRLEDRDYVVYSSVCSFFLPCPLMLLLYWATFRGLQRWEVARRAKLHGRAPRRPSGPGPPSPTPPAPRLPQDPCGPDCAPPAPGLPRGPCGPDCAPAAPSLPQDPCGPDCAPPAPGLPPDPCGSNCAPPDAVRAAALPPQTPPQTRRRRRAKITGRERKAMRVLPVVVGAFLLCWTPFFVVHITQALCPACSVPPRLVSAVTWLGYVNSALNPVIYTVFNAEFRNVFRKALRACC", "assay": "DiscoverX PathHunter β-arrestin recruitment assay, D4R"}, "[1]": {"assay": "Phase I metabolic stability in rat liver microsomes (with NADPH)", "assay_type": "in vitro ADME", "conditions": "pH 7.4, presence of NADPH, mean ± SD, n = 3", "procedure": "We evaluated the Phase I metabolic stability of compounds 2−7 and 14−19 using rat and human liver microsomes, as previously described.[45]\nPhase I metabolic stability assays were conducted using rat and human liver microsomes as previously described[45],[70] with minor modifications. In brief, the reactions were carried out with 100 mM potassium phosphate buffer, pH 7.4, in the presence of NADPH regenerating system (1.3 mM NADPH, 3.3 mM glucose 6-phosphate, 3.3 mM MgCl2, 0.4 U/mL glucose-6-phosphate dehydrogenase, 50 μM sodium citrate). Negative controls without cofactors were assessed to determine the non-CYP-mediated metabolism. Compound disappearance was monitored over time using a liquid chromatography and tandem mass spectrometry (LC/MS) method. All reactions were performed in triplicate.\nChromatographic analysis was performed on a Dionex ultra high-performance LC system coupled with Q Exactive Focus orbitrap mass spectrometer (Thermo Fisher Scientific Inc., Waltham MA). Separation was achieved using Agilent Eclipse Plus column (100 × 2.1 mm^2 i.d.; maintained at 35 °C) packed with a 1.8 μm C18 stationary phase. […] The total run time for each analyte was 6.5 min. Pumps were operated at a flow rate of 0.3 mL/min. The mass spectrometer controlled by Xcalibur software 4.0.27.13 (Thermo Scientific) was operated with a HESI ion source in positive ionization mode. Compounds were identified in the full-scan mode (from m/z 50 to 750) by comparing t = 0 samples with t = 30 min and t = 60 min samples."}, "D1": {"biological_target": "T3, D1 (Homo sapiens, UniProt P21728)", "T3 construct": "Psychoactive Drug Screening Program (PDSP)", "T3 sequence (P21728 whole entry)": "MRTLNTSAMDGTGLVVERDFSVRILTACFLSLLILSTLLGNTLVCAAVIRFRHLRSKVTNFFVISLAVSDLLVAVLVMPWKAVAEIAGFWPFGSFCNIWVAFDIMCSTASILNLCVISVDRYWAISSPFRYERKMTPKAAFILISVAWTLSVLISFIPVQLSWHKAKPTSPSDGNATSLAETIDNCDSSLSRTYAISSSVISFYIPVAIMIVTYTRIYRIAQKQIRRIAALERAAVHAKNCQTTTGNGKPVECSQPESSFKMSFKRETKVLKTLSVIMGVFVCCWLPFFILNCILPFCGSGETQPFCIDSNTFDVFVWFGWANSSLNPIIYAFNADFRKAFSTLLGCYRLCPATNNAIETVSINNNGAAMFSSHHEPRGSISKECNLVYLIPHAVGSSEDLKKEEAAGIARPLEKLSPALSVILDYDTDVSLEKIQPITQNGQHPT", "assay": "PDSP primary screen and secondary assay, D1", "assay_type": "binding", "source_text": "as §1, §2"}},
  "data": [
    {"smiles": "Cc1cccc(-n2cc(CN3CCN(c4cccc5ccccc45)CC3)nn2)c1", "note": "[Compound 18, 1-(Naphthalen-1-yl)-4-((1-(m-tolyl)-1H-1,2,3-triazol-4-yl)methyl)piperazine]", "values": [
      {"measurement": "inhibition at 10 µM", "setting": "D5", "value": 25.7, "unit": "%"},
      {"measurement": "EC50", "setting": "human D4R", "value": "> 10", "unit": "µM"},
      {"measurement": "IC50", "setting": "human D4R", "value": "3.6 ± 1.1", "unit": "µM"},
      {"measurement": "D4R average activity at the highest tested dose", "setting": "human D4R; agonist mode, at 10 μM (Emax ND)", "value": "ND (8% at 10 μM)"},
      {"measurement": "D4R Ant. (%)", "setting": "human D4R; antagonist mode, EC80 dopamine (1 μM), normalized to spiperone", "value": "92.1 ± 12.1", "unit": "%"},
      {"measurement": "half-life", "setting": "[1]", "value": "56.8 ± 10.2", "unit": "min"},
      {"measurement": "Ki", "setting": "D1", "value": 783, "unit": "nM"},
      {"measurement": "inhibition at 10 µM", "setting": "D1; 10 µM compound", "value": 59.3, "unit": "%"}
    ]}
  ]
}
